# Test results: patent publication US20050037067A1, “3,7-Diazabicyclo [3.3.1]formulations as anti-arrhythmic compounds” (priority 2001, published 2005)
# Structures can show the parent of a compound that is named as a salt.
# Test: Solubility of the salt in vehicle compared to water alone
# Assay type: physicochemical
# Description: Salt was dissolved in the 40/60 (w/w %) hydroxypropyl-β-cyclodextrin/water vehicle.
# The solubility of the salt was almost 40 times higher in this vehicle compared to water alone.
# Salt was dissolved in PEG 400, ethanol and the surfactant Solutol™ (BASF; comprises polyethylene glycol esters of 12-OH-stearic acid). Water was added to the final volume. The solubility of the benzenesulphonate salt was approximately 4 times higher in this vehicle than it is in water alone.
smiles,measurement,setting,value
"CC(C)(C)C(=O)CN1CC2CN(CCCNc3ccc(C#N)cc3)CC(C1)O2 [Compound A, benzenesulphonic acid salt, 4-({3-[7-(3,3-dimethyl-2-oxobutyl)-9-oxa-3,7-diazabicyclo[3.3.1]non-3-yl]propyl}amino)benzonitrile]",solubility in vehicle compared to water alone,vehicle Polyethyleneglycol 400/Ethanol/Solutol/Water (40/10/5/45 w/w %),approximately 4 times
same,solubility in vehicle compared to water alone,vehicle hydroxypropyl-β-cyclodextrin/water (40/60 w/w %),~40 times
